Source: the supplement of paper PMC10307832

What was measured:
Assay in all cases: relative viability (nuclei count vs DMSO), 5 days (fraction); higher = more cells survive
BI-2536 + Navitoclax = compound: CC[C@@H]1C(=O)N(C)c2cnc(Nc3ccc(C(=O)NC4CCN(C)CC4)cc3OC)nc2N1C1CCCC1 [BI-2536] + CC1(C)CCC(c2ccc(Cl)cc2)=C(CN2CCN(c3ccc(C(=O)NS(=O)(=O)c4ccc(N[C@H](CCN5CCOCC5)CSc5ccccc5)c(S(=O)(=O)C(F)(F)F)c4)cc3)CC2)C1 [Navitoclax] (partner 0.5 µM)
Summary of the method: (§1)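 Values are medians from duplicate plates. Each reflects relative viability, defined as the nuclei count of treated wells over that of vehicle wells. Lung cancer cell lines in 1536-well plates were pin-tool dosed one day after seeding with one drug alone or with a fixed anchor-drug dose plus five library-drug doses (not always all listed) in √10 steps, then fixed, stained and imaged at 4× after 5 days.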

BI-2536 + Palbociclib = compound: CC[C@@H]1C(=O)N(C)c2cnc(Nc3ccc(C(=O)NC4CCN(C)CC4)cc3OC)nc2N1C1CCCC1 [BI-2536] + CC(=O)c1c(C)c2cnc(Nc3ccc(N4CCNCC4)cn3)nc2n(C2CCCC2)c1=O [Palbociclib] (partner 0.5 µM)
Summary of the method: as §1

[1] = compound: CC1CC(=O)N(C2=CN=C(N=C2N1C3CCCC3)NC4=C(C=C(C=C4)C(=O)NC5CCN(CC5)C)OC)C [NPK76-II-72-1] + Cc1cc(Nc2cc(N3CCN(C)CC3)nc(Sc3ccc(NC(=O)C4CC4)cc3)n2)n[nH]1 [Tozasertib] (partner 0.1 µM)
Summary of the method: as §1

BI-2536 + Linsitinib = compound: CC[C@@H]1C(=O)N(C)c2cnc(Nc3ccc(C(=O)NC4CCN(C)CC4)cc3OC)nc2N1C1CCCC1 [BI-2536] + C[C@]1(O)C[C@@H](c2nc(-c3ccc4ccc(-c5ccccc5)nc4c3)c3c(N)nccn32)C1 [Linsitinib] (partner 1 µM)
Summary of the method: as §1

Cell Line | relative viability (BI-2536 + Navitoclax; first compound 0.01 µM) | relative viability (BI-2536 + Navitoclax; first compound 0.03162 µM) | relative viability (BI-2536 + Navitoclax; first compound 0.1 µM) | relative viability (BI-2536 + Navitoclax; first compound 0.3162 µM) | relative viability (BI-2536 + Navitoclax; first compound 1 µM) | relative viability (BI-2536 + Palbociclib; first compound 0.01 µM) | relative viability (BI-2536 + Palbociclib; first compound 0.03162 µM) | relative viability (BI-2536 + Palbociclib; first compound 0.1 µM) | relative viability (BI-2536 + Palbociclib; first compound 0.3162 µM) | relative viability (BI-2536 + Palbociclib; first compound 1 µM) | relative viability ([1]; first compound 0.01 µM) | relative viability ([1]; first compound 0.03162 µM) | relative viability ([1]; first compound 0.1 µM) | relative viability ([1]; first compound 0.3162 µM) | relative viability ([1]; first compound 1 µM) | relative viability (BI-2536 + Linsitinib; first compound 0.01 µM) | relative viability (BI-2536 + Linsitinib; first compound 0.03162 µM) | relative viability (BI-2536 + Linsitinib; first compound 0.1 µM) | relative viability (BI-2536 + Linsitinib; first compound 0.3162 µM) | relative viability (BI-2536 + Linsitinib; first compound 1 µM)
SW 1573 | 1.04 | 1.05 | 1.05 | 0.0673 | 0.0547 | 0.347 | 0.237 | 0.172 | 0.116 | 0.0925 | 0.168 | 0.208 | 0.238 | 0.265 | 0.21 | 0.696 | 0.683 | 0.82 | 0.161 | 0.132
A-427 | 0.961 | 0.979 | 0.941 | 0.284 | 0.165 | 0.519 | 0.498 | 0.453 | 0.219 | 0.203 | 0.222 | 0.23 | 0.207 | 0.192 | 0.252 | 1.15 | 1.23 | 1.08 | 1.13 | 0.304
NCI-H2347 | 0.759 | 0.742 | 0.744 | 0.358 | 0.326 | 0.471 | 0.426 | 0.369 | 0.385 | 0.387 | 0.405 | 0.542 | 0.507 | 0.589 | 0.638 | 0.947 | 0.929 | 0.967 | 0.617 | 0.549
NCI-H1355 | 0.885 | 1.08 | 0.91 | 0.159 | 0.186 | 0.415 | 0.405 | 0.385 | 0.171 | 0.158 | 0.534 | 0.582 | 0.605 | 0.543 | 0.609 | 0.877 | 0.889 | 0.856 | 0.227 | 0.178
NCI-H358 | – | – | – | – | – | 0.132 | 0.133 | 0.104 | 0.0605 | 0.0928 | 0.108 | 0.11 | 0.0907 | – | 0.115 | 0.723 | 0.676 | 0.402 | 0.161 | 0.137
PC-3 [JPC-3] | 0.849 | 0.774 | 0.743 | 0.319 | 0.212 | 0.54 | 0.828 | 0.5 | 0.416 | 0.424 | 0.882 | 0.861 | 0.81 | 0.904 | 0.93 | 0.974 | 0.899 | 1 | 0.756 | 0.259
NCI-H2228 | 1.03 | 0.999 | 0.933 | 0.0826 | 0.121 | 0.749 | 0.618 | 0.232 | 0.157 | 0.111 | 0.243 | 0.265 | 0.341 | 0.213 | 0.422 | 0.692 | 1.06 | 0.63 | 0.116 | 0.155
HOP-62 | 1 | 1.08 | 0.967 | 0.0716 | 0.0536 | 0.421 | 0.409 | 0.443 | 0.17 | 0.143 | 0.333 | 0.382 | 0.397 | 0.328 | 0.413 | 0.89 | 1 | 0.914 | 0.135 | 0.142
